Results reported in US20240018121A1, “NOVEL HETEROAROMATIC COMPOUNDS EXHIBITING ANTIFUNGAL ACTIVITY AND THEIR METHOD OF USE” (FOX CHASE CHEMCIAL DIVERSITY CENTER, INC., priority 2020, published 2024).
In brackets after ≈: the same amount, converted by molar mass. Structures can show the parent of a compound that is named as a salt. Where two headings read alike, the source gives them in different places.

Key:
Assay type in all cases: cell-based
[1] = test system: Aspergillus flavus AFL1 (ATCC MYA-3631); experiment: Fungal MIC Protocol, Aspergillus flavus; conditions: Aspergillus flavus, read-out: MIC Aspergillus flavus 3631
How it was run: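 Aspergillus flavus spores were grown on Potato Dextrose Agar at 35° C. for 3-5 days, harvested in PBS pH 7.4+0.1% Tween-20 with glass beads, and diluted in RPMI/MOPS to an OD530 of 0.002 (about 2×10^4 cfu/mL). 50 ul of spores were combined with 50 μl of serially diluted compound in 96-well round bottom plates and incubated at 35° C. for 48 hours.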

[2] = test system: Aspergillus fumigatus T33439 (ATCC MYA-3626); experiment: Fungal MIC Protocol, Aspergillus fumigatus; conditions: Aspergillus fumigatus, read-out: MIC Aspergillus fumigatus 3626
How it was run: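 Aspergillus fumigatus was grown on Potato Dextrose Agar at 35° C. for 3-5 days, and spores were collected with PBS pH 7.4+0.1% Tween-20 plus glass beads. Spores were diluted in RPMI/MOPS to OD530 0.002 (about 2×10^4 cfu/mL). 50 ul was added to 50 μl of serially diluted compound in round bottom 96-well plates, run in duplicate, and incubated at 35° C. for 48 hours.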

[3] = test system: Fusarium falciforme FS1 (ATCC MYA-3636); experiment: Fungal MIC Protocol, Fusarium falciforme; conditions: Fusarium falciforme, read-out: MIC Fusarium falciforme 3636
How it was run: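 Fusarium falciforme spores were raised on Potato Dextrose Agar at 35° C. for 3-5 days, collected in PBS pH 7.4+0.1% Tween-20 with glass beads, and diluted in RPMI/MOPS pH 7.0 to OD530 0.005 (about 2×10^4 cfu/mL). 50 ul spores were added to 50 μl duplicate serial compound dilutions in round bottom 96-well plates and incubated at 35° C. for 48 hours.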

[4] = test system: Fusarium solani (ATCC 58877); experiment: Fungal MIC Protocol, Fusarium solani; conditions: Fusarium solani, read-out: MIC Fusarium solani 58877
How it was run: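 Fusarium solani spores were grown on Potato Dextrose Agar in tissue culture flasks at 35° C. for 3-5 days, harvested with PBS pH 7.4+0.1% Tween-20 and glass beads, and diluted in RPMI/MOPS to an OD530 of 0.005 (about 2×10^4 cfu/mL). Equal 50 ul volumes of spores and serially diluted compound were combined in 96-well round bottom plates and incubated 48 hours at 35° C.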

[5] = test system: Mucor circinelloides 1463(62) (ATCC 26759); experiment: Fungal MIC Protocol, Mucor circinelloides (MIC-50); conditions: Mucor circinelloides, read-out: MIC-50 Mucorales circinelloides 26579
How it was run: (§1)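 Spores from PDA cultures (Aspergillus, Fusarium at 35 °C; Mucor at room temperature) diluted in RPMI/MOPS pH 7.0 to ~2×10^4 cfu/mL. Ten serial dilutions starting from 200 ug/mL in medium (before 1:1 mixing with spores), in duplicate; 48 h at 35 °C. MIC is the lowest concentration giving >50% visually scored growth inhibition.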

[6] = test system: Mucor ramosissimus 057718 (ATCC 90286); experiment: Fungal MIC Protocol, Mucor ramosissimus (MIC-50); conditions: Mucor ramosissimus, read-out: MIC-50 Mucorales ramosissimus 90286
How it was run: as §1

[7] = test system: Candida albicans GDH2346; experiment: Candida Minimal Inhibitory Concentration (MIC); conditions: Candida albicans, read-out: MIC-50 Candida albicans GDH2346
How it was run: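 Twofold serial dilutions from 200 μg/mL in RPMI 1640/MOPS with glucose, pH 7.0, tested in duplicate against yeast from an OD600 1.0 suspension diluted 1:1000. Incubated at 35° C; OD600 read at 24 and 48 h.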

[8] = 100% growth inhibition at 48 hours
[9] = ATCC58877, 100% growth inhibition at 48 hours
[10] = ATCC26759, 50% growth inhibition at 48 hours
[11] = ATCC90286, 50% growth inhibition at 48 hours
[12] = GDH2346, 50% growth inhibition at 48 hours

Row | Compound | MIC [1, 8] | MIC [2, 8] | MIC [3, 8] | MIC [4, 9] | MIC50 [5, 10] | MIC50 [6, 11] | MIC50 [7, 12] | MIC ([1]; 48 h) | MIC ([2]; 48 h) | MIC ([3]; 48 h) | MIC ([4]; ATCC58877, 48 h) | MIC50 ([5]; ATCC26759, 48 h) | MIC50 ([6]; ATCC90286, 48 h) | MIC50 ([7]; GDH2346, 48 h)
1 | CCOCCOCCn1c(-c2ccc(C3=CCN(C(=N)N)CC3)cc2F)nnc1-c1ccc(C2=CCN(C(=N)N)CC2)cc1F [Example 9, 4,4′-(4,4′-(4-(2-(2-Ethoxyethoxy)ethyl)-4H-1,2,4-triazole-3,5-diyl)bis(3-fluoro-4,1-phenylene))bis(5,6-dihydropyridine-1(2H)-carboximidamide)] | 0.39 µg/mL (≈ 0.629 µM) | 0.2 µg/mL (≈ 0.323 µM) | 0.2 µg/mL (≈ 0.323 µM) | 0.2 µg/mL (≈ 0.323 µM) | 3.13 µg/mL (≈ 5.05 µM) | 3.13 µg/mL (≈ 5.05 µM) | < 0.1 µg/mL | – | – | – | – | – | – | –
2 | N=C(N)NCCn1c(-c2ccc(C3=CCN(C(=N)N)CC3)cc2F)nnc1-c1ccc(C2=CCN(C(=N)N)CC2)cc1F [Example 16, 4,4′-(4,4′-(4-(2-guanidinoethyl)-4H-1,2,4-triazole-3,5-diyl)bis(3-fluoro-4,1-phenylene))bis(5,6-dihydropyridine-1(2H)-carboximidamide)] | 0.39 µg/mL (≈ 0.663 µM) | 0.39 µg/mL (≈ 0.663 µM) | < 0.1 µg/mL | < 0.1 µg/mL | 12.5 µg/mL (≈ 21.2 µM) | > 100 µg/mL | 0.39 µg/mL (≈ 0.663 µM) | – | – | – | – | – | – | –
3 | N=C(N)N1CC=C(c2ccc(-c3nnc(-c4ccc(C5=CCN(C(=N)N)CC5)cc4)n3C3CCCC3)cc2)CC1 [Example 69, 4-(4-{5-[4-(1-carbamimidoyl-1,2,3,6-tetrahydropyridin-4-yl)phenyl]-4-cyclopentyl-4H-1,2,4-triazol-3-yl}phenyl)-1,2,3,6-tetrahydropyridine-1-carboximidamide trifluoroacetate] | – | – | – | – | – | – | – | 0.2 µg/mL | 0.1 µg/mL | < 0.1 µg/mL | < 0.1 µg/mL | 0.39 µg/mL | 0.39 µg/mL | 0.39 µg/mL
4 | N=C(N)N1CC=C(c2ccc(-c3nnc(-c4ccc(C5=CCN(C(=N)N)CC5)cc4F)n3C3CCN(C(=N)N)CC3)c(F)c2)CC1 [Example 12, 4,4′-(4,4′-(4-(1-Carbamimidoylpiperidin-4-yl)-4H-1,2,4-triazole-3,5-diyl)bis (3-fluoro-4,1-phenylene))bis(5,6-dihydropyridine-1(2H)-carboximidamide)] | 3.13 µg/mL (≈ 4.98 µM) | 3.13 µg/mL (≈ 4.98 µM) | 0.39 µg/mL (≈ 0.62 µM) | < 0.1 µg/mL | > 100 µg/mL | > 100 µg/mL | 12.5 µg/mL (≈ 19.9 µM) | – | – | – | – | – | – | –
5 | Cn1c(-c2cc(F)c(C3=CCN(C(=N)N)CC3)c(F)c2)nnc1-c1ccc(C2=CCN(C(=N)N)CC2)cc1F [Example 85, 4-(4-{5-[4-(1-carbamimidoyl-1,2,3,6-tetrahydropyridin-4-yl)-2-fluorophenyl]-4-methyl-4H-1,2,4-triazol-3-yl}-2,6-difluorophenyl)-1,2,3,6-tetrahydropyridine-1-carboximidamide trifluoroacetate] | – | – | – | – | – | – | – | 0.024 µg/mL | 0.024 µg/mL | < 0.012 µg/mL | < 0.012 µg/mL | 0.2 µg/mL | 0.78 µg/mL | 0.1 µg/mL
6 | N=C(N)N1CC=C(c2ccc(-c3nnc(-c4ccc(C5=CCN(C(=N)N)CC5)cc4F)n3C3CC3)c(F)c2)CC1 [Example 17, 4,4′-(4,4′-(4-Cyclopropyl-4H-1,2,4-triazole-3,5-diyl)bis(3-fluoro-4,1-phenylene))bis(5,6-dihydropyridine-1(2H)-carboximidamide)] | 0.39 µg/mL (≈ 0.717 µM) | < 0.1 µg/mL | < 0.1 µg/mL | 0.39 µg/mL (≈ 0.717 µM) | 0.39 µg/mL (≈ 0.717 µM) | 0.78 µg/mL (≈ 1.43 µM) | 3.13 µg/mL (≈ 5.76 µM) | – | – | – | – | – | – | –
7 | Cn1nc(-c2ccc(C3=CCN(C(=N)N)CC3)cc2)cc1-c1ccc(C2=CCN(C(=N)N)CC2)cc1 [Example 54, 4,4′-(4,4′-(1-Methyl-1H-pyrazole-3,5-diyl)bis(4,1-phenylene)) bis(5,6-dihydropyridine-1(2H)-carboximidamide)] | 0.39 µg/mL (≈ 0.811 µM) | 1.56 µg/mL (≈ 3.25 µM) | < 0.1 µg/mL | 0.78 µg/mL (≈ 1.62 µM) | 0.39 µg/mL (≈ 0.811 µM) | 3.13 µg/mL (≈ 6.51 µM) | 0.5 µg/mL (≈ 1.04 µM) | – | – | – | – | – | – | –
8 | Cn1c(-c2ccc(C3=CCN(C(=N)N)C3)cc2)nnc1-c1ccc(C2=CCN(C(=N)N)C2)c(C(F)(F)F)c1 [Example 27, 3-(4-(5-(4-(1-Carbamimidoyl-2,5-dihydro-1H-pyrrol-3-yl)-3-(trifluoromethyl)phenyl)-4-methyl4H-1,2,4-triazol-3-yl)phenyl)-2,5-dihydro-1H-pyrrole-1-carboximidamide] | 0.39 µg/mL (≈ 0.748 µM) | < 0.1 µg/mL | < 0.1 µg/mL | 0.2 µg/mL (≈ 0.383 µM) | 0.78 µg/mL (≈ 1.5 µM) | 6.25 µg/mL (≈ 12 µM) | 0.39 µg/mL (≈ 0.748 µM) | – | – | – | – | – | – | –

Further molecules by falling MIC [1, 8], results first:

Row | MIC [1, 8] | MIC [2, 8] | MIC [3, 8] | MIC [4, 9] | MIC50 [5, 10] | MIC50 [6, 11] | MIC50 [7, 12] | Compound | MIC ([1]; 48 h) | MIC ([2]; 48 h) | MIC ([3]; 48 h) | MIC ([4]; ATCC58877, 48 h) | MIC50 ([5]; ATCC26759, 48 h) | MIC50 ([6]; ATCC90286, 48 h) | MIC50 ([7]; GDH2346, 48 h)
9 | 0.2 µg/mL (≈ 0.415 µM) | 0.2 µg/mL (≈ 0.415 µM) | < 0.1 µg/mL | 0.39 µg/mL (≈ 0.81 µM) | 0.39 µg/mL (≈ 0.81 µM) | 25 µg/mL (≈ 51.9 µM) | 0.16 µg/mL (≈ 0.332 µM) | Cc1cc(C2=CCN(C(=N)N)CC2)ccc1-n1cc(-c2ccc(C3=CCN(C(=N)N)CC3)cc2)nn1 [Example 34, 4-(4-(1-(4-(1-Carbamimidoyl-1,2,3,6-tetrahydropyridin-4-yl)-2-methylphenyl)-1H-1,2,3-triazol-4-yl)phenyl)-5,6-dihydropyridine-1(2-H)-carboximidamide] | – | – | – | – | – | – | –
10 | 0.2 µg/mL (≈ 0.367 µM) | < 0.1 µg/mL | 0.78 µg/mL (≈ 1.43 µM) | 6.25 µg/mL (≈ 11.5 µM) | 0.39 µg/mL (≈ 0.715 µM) | 1.56 µg/mL (≈ 2.86 µM) | 0.2 µg/mL (≈ 0.367 µM) | CC(C)n1c(-c2ccc(C3=CCN(C(=N)N)CC3)cc2F)nnc1-c1ccc(C2=CCN(C(=N)N)CC2)cc1F [Example 13, 4,4-(4,4-(4-Isopropyl-4H-1,2,4-triazole-3,5-diyl)bis(3-fluoro-4,1-phenylene))bis(5,6-dihydropyridine-1(2H)-carboximidamide)] | – | – | – | – | – | – | –
11 | 0.1 µg/mL | 0.1 µg/mL | 0.05 µg/mL | 0.1 µg/mL | 0.2 µg/mL | 0.39 µg/mL | 0.1 µg/mL | Cn1c(-c2ccc(C3=CCN(C(=N)N)CC3)c(F)c2)nnc1-c1ccc(C2=CCN(C(=N)N)CC2)cc1F [Example 79, 4-(4-{5-[4-(1-carbamimidoyl-1,2,3,6-tetrahydropyridin-4-yl)-2-fluorophenyl]-4-methyl-4H-1,2,4-triazol-3-yl}-2-fluorophenyl)-1,2,3,6-tetrahydro pyridine-1-carboximidamide trifluoroacetate] | – | – | – | – | – | – | –
12 | 0.06 µg/mL (≈ 0.128 µM) | 0.01 µg/mL (≈ 0.0214 µM) | 0.01 µg/mL (≈ 0.0214 µM) | < 0.05 µg/mL | 0.1 µg/mL (≈ 0.214 µM) | 0.78 µg/mL (≈ 1.67 µM) | 0.63 µg/mL (≈ 1.35 µM) | N=C(N)N1CC=C(c2ccc(-c3cn(-c4ccc(C5=CCN(C(=N)N)CC5)cc4)nn3)cc2)CC1 [Example 30, 4(4-{1-[4-(1-Carbamimidoyl-1,2,3,6-tetrahydropyridin-4-yl)phenyl]-1H-1,2,3-triazol-4-yl}phenyl)-1,2,3,6-tetrahydropyridine-1-carboximidamide] | – | – | – | – | – | – | –
13 | 0.03 µg/mL (≈ 0.058 µM) | 0.01 µg/mL (≈ 0.0193 µM) | 0.01 µg/mL (≈ 0.0193 µM) | 0.03 µg/mL (≈ 0.058 µM) | 0.1 µg/mL (≈ 0.193 µM) | 0.2 µg/mL (≈ 0.386 µM) | 0.1 µg/mL (≈ 0.193 µM) | Cn1c(-c2ccc(C3=CCN(C(=N)N)CC3)c(F)c2)nnc1-c1ccc(C2=CCN(C(=N)N)CC2)c(F)c1 [Example 19, 4,4′-(4,4-(4-Methyl-4H-1,2,4-triazole-3,5-diyl)bis(2-fluoro-4,1-phenylene)) bis(5,6-dihydropyridine-1(2H)-carboximidamide)] | – | – | – | – | – | – | –
